Results as given in the supplement of paper PMC10307832.

Assays:
Assay in all cases: relative viability (nuclei count vs DMSO), 5 days (fraction); higher = more cells survive
Apatinib = compound: N#CC1(c2ccc(NC(=O)c3cccnc3NCc3ccncc3)cc2)CCCC1 [Apatinib]
In short: (§1)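 After an overnight hold at 37 °C, lung cancer cell lines in 1536-well plates were pinned with five library-drug doses (not always all listed), each √10 from the next, on vehicle-anchored plates. The cells stayed 5 days without fresh medium, then a one-step fix, permeabilisation and Hoechst stain preceded 4× imaging and MetaXpress nuclear counts. A plate passed only with control CV under 25% and at least one doubling. Viability is the median, over plates, of treated-well nuclei relative to vehicle-well nuclei.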

Metformin = compound: CN(C)C(=N)NC(=N)N [Metformin]
In short: as §1

Metformin + Foretinib = compound: CN(C)C(=N)NC(=N)N [Metformin] + COc1cc2c(Oc3ccc(NC(=O)C4(C(=O)Nc5ccc(F)cc5)CC4)cc3F)ccnc2cc1OCCCN1CCOCC1 [Foretinib] (partner 0.25 µM)
In short: (§2)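 One day after seeding in 1536-well plates, lung cancer cell lines were dosed by pin tool. Dosing was either single-drug or a fixed anchor-drug dose plus five library-drug doses (not always all listed) in √10 steps. After 5 days, nuclei were stained in one fix-and-stain step and counted on 4× images, and relative viability is the nuclei count of treated wells over that of vehicle wells, given as the median of duplicate plates.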

Metformin + Navitoclax = compound: CN(C)C(=N)NC(=N)N [Metformin] + CC1(C)CCC(c2ccc(Cl)cc2)=C(CN2CCN(c3ccc(C(=O)NS(=O)(=O)c4ccc(N[C@H](CCN5CCOCC5)CSc5ccccc5)c(S(=O)(=O)C(F)(F)F)c4)cc3)CC2)C1 [Navitoclax] (partner 0.5 µM)
In short: as §2

Cell Line	relative viability (Apatinib; 0.08 µM)	relative viability (Apatinib; 0.253 µM)	relative viability (Apatinib; 0.8 µM)	relative viability (Apatinib; 2.53 µM)	relative viability (Apatinib; 8 µM)	relative viability (Metformin; 10 µM)	relative viability (Metformin; 31.62 µM)	relative viability (Metformin; 100 µM)	relative viability (Metformin; 316.23 µM)	relative viability (Metformin; 1000 µM)	relative viability (Metformin + Foretinib; first compound 10 µM)	relative viability (Metformin + Foretinib; first compound 31.62 µM)	relative viability (Metformin + Foretinib; first compound 100 µM)	relative viability (Metformin + Foretinib; first compound 316.23 µM)	relative viability (Metformin + Foretinib; first compound 1000 µM)	relative viability (Metformin + Navitoclax; first compound 10 µM)	relative viability (Metformin + Navitoclax; first compound 31.62 µM)	relative viability (Metformin + Navitoclax; first compound 100 µM)	relative viability (Metformin + Navitoclax; first compound 316.23 µM)	relative viability (Metformin + Navitoclax; first compound 1000 µM)
RERF-LC-KJ	1.03	0.978	0.933	0.847	0.802	0.817	0.976	0.888	0.786	0.926	0.775	0.796	0.804	0.763	0.935	1.08	1.15	0.752	0.833	0.745
NCI-H2170	0.981	1.01	0.909	0.89	0.886	0.787	0.882	0.907	0.957	1.01	0.951	1.02	0.915	0.95	0.965	0.579	0.526	0.575	0.497	0.507
NCI-H1793	1.02	1.01	0.857	0.772	0.749	0.943	1.01	0.993	0.977	1.25	0.78		1.01	0.743	1.18	0.335	0.395	0.482	0.442	0.489
NCI-H2405	0.954	1.04	1.07	0.909	0.955	0.756	1.04	0.91	0.971	0.931	0.936	1.06	1.11	1.01	1.09	0.869	1.26	0.988	1.07	1.09
UMC-11	1.06	0.866	0.942	0.899	0.885	0.961	1.02	1.06	0.96	0.992	1.14	1.09	1.05	1.1	1.07	0.328	0.347	0.346	0.363	0.384
NCI-H727	1.08	0.879	0.937	0.77	0.843	1.04	1.06	1.13	0.688	1.16	0.971	0.769	0.959	0.914	0.927	0.503	0.514	0.496	0.512	0.535
NCI-H1299	1.04	1	1	0.931	0.917	1.07	1.04	1.07	1.01	1.03	1.09	1.12	1.14	1.11	1.13	1.12	1.11	1.15	1.15	1.12
NCI-H838	1.08	1.06	0.97	0.936	0.941	1.05	1.07	1.01	0.987	1.04	1.04	1.13	1.07	0.984	0.996	1.19	1.23	1.21	1.15	1.22
